Measurements published in patent US20110144079A1, “ANTIMICROBIAL SYSTEM” (priority 2008, published 2011).

Key:
P. mirabilis NCTC 12442 [1] = experiment: Broth microdilution MIC/MBC; format: cell-based; details: Proteus mirabilis, NCTC12442; for MBC: P. mirabilis NCTC 12442, 99.9% killing; for MIC: P. mirabilis NCTC 12442, 24 h at 37° C.
Summary of the method: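 Imidazolium salts two-fold diluted in Mueller-Hinton broth over 0.0000625-1% w/v, inoculum 2×10^5 CFU/ml, aerobic 24 h at 37° C., per NCCLS. MBC: 20 μl from no-growth wells plated on MHA, 24 h, scored for 99.9% killing.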

MRSA [2] = experiment: Broth microdilution MIC/MBC; format: cell-based, methicillin-resistant S. aureus; details: Staphylococcus aureus; for MBC: 99.9% killing; for MIC: 24 h at 37° C.
Procedure: Broth microdilution tests were performed according to NCCLS guidelines. Serial two-fold dilutions of each imidazolium salt (from an original working solution which had been 0.22 μm sterile filtered) in Mueller-Hinton Broth (MHB) (100 μl) were prepared in 96-well micro-titre plates over the range 0.0000625-1% w/v. The inoculum to be tested was prepared by adjusting the turbidity of an actively overnight growing broth culture in MHB to an optical density at 550 nm equivalent to 1×10^8 CFU/ml. The suspension was further diluted to provide a final inoculum density of 2×10^5 CFU/ml in MHB as verified by total viable count. The inoculum to be tested (100 μl, 2×10^5 CFU ml^−1) was added to each well of the microdilution trays which were incubated aerobically for 24 h at 37° C. Positive and negative growth controls were included in every assay (6 replicates). After determining the MICs, minimum bactericidal concentrations (MBCs) were determined by spreading 20 μl of suspension from wells showing no growth onto MHA plates, which were then incubated for 24 h and examined for 99.9% killing.

B. cenocepacia J2315 = experiment: Biofilm assay (Calgary Biofilm Device), MBEC; format: cell-based; details: B. cenocepacia J2315 24 h biofilm, 24 h challenge
Procedure: (§1) Biofilms of each test organism were grown in the Calgary Biofilm Device (commercially available as the MBEC Assay™ for Physiology & Genetics, Innovotech Inc., Edmonton, Alberta, Canada). The device, a micro-titre plated based assay, consists of two parts; a microtitre plate containing the inoculated test medium and a polystyrene lid with 96 identical pegs on which the microbial biofilm forms under gyrorotary incubation. The biofilm assay was conducted according to the MBEC™ assay protocol as supplied by the manufacturer, with slight modifications. Inocula of each test organism were prepared in MHB as described above and adjusted to provide a final inoculum density of ˜10^7 CFU ml^−1 (as confirmed by viable count). 150 μl of the inoculated media was transferred to each well of the 96-well microtitre plate and the assay plate lid, bearing 96 pegs was placed into the microtitre plate. The MBEC assay plates were placed in a gyrorotary incubator (37° C., 95% relative humidity) for 24 h to permit growth and comparison of 24 h biofilms of each test strain. Positive and negative growth controls were included in each plate (6 replicates). Initial and 24 h planktonic viable counts were measured, as were 24 h biofilm counts, expressed as CFU peg^−1, according to manufacturers instructions. After 24 h, the peg lid of the MBEC assay plate was gently rinsed three times. After rinsing, the peg lid of the MBEC assay was transferred to a ‘challenge’ plate. Serial dilutions of each imidazolium salt were prepared in 200 μl of MHB containing various concentrations of IL in each well. Positive growth control and sterility control were included in each assay plate. […] Biofilms were dislodged into recovery media by sonication for 5 minutes and the peg lid discarded. The recovery plate is incubated overnight and visually checked after 24 h for turbidity. In addition, optical density measurements for each plate were recorded at 550 nm. Clear wells were taken as evidence of biofilm eradication and the MBEC value was assigned as the lowest concentration at which no growth was observed after 24 h incubation. Plates were incubated for a further 24 h to confirm biofilm eradication concentrations.

C. tropicalis NCTC 7393 = experiment: Biofilm assay (Calgary Biofilm Device), MBEC; format: cell-based; details: C. tropicalis NCTC 7393 24 h biofilm, 24 h challenge
Procedure: as §1

E-MRSA 15 = experiment: Biofilm assay (Calgary Biofilm Device), MBEC; format: cell-based; details: E-MRSA 15 24 h biofilm, 24 h challenge
Procedure: as §1

E. coli PIII = experiment: Biofilm assay (Calgary Biofilm Device), MBEC; format: cell-based; details: for MBEC: E. coli PIII 24 h biofilm, 24 h challenge; for percent weight to volume of ionic liquid that corresponds to the MBEC value: E. coli PIII biofilm
Procedure: as §1

K. aerogenes NCTC 7427 = experiment: Biofilm assay (Calgary Biofilm Device), MBEC; format: cell-based; details: K. aerogenes NCTC 7427 24 h biofilm, 24 h challenge
Procedure: as §1

P. aeruginosa PA01 = experiment: Biofilm assay (Calgary Biofilm Device), MBEC; format: cell-based; details: for MBEC: P. aeruginosa PA01 24 h biofilm, 24 h challenge; for percent weight to volume of ionic liquid that corresponds to the MBEC value: P. aeruginosa PA01 biofilm
Procedure: as §1

P. mirabilis NCTC 12442 [3] = experiment: Biofilm assay (Calgary Biofilm Device), MBEC; format: cell-based; details: P. mirabilis NCTC 12442 24 h biofilm, 24 h challenge
Procedure: as §1

S. aureus ATCC 29213 = experiment: Biofilm assay (Calgary Biofilm Device), MBEC; format: cell-based; details: S. aureus ATCC 29213 24 h biofilm, 24 h challenge
Procedure: as §1

[4] = test system: S. epidermidis ATCC 35984; experiment: Biofilm assay (Calgary Biofilm Device), MBEC; format: cell-based; details: for MBEC: S. epidermidis ATCC 35984 24 h biofilm, 24 h challenge; for percent weight to volume of ionic liquid that corresponds to the MBEC value: S. epidermidis ATCC 35984 biofilm
Procedure: as §1

MRSA [5] = experiment: Biofilm assay (Calgary Biofilm Device), MBEC; format: cell-based, methicillin-resistant S. aureus; details: for MBEC: MRSA 24 h biofilm, 24 h challenge; for percent weight to volume of ionic liquid that corresponds to the MBEC value: MRSA biofilm
Procedure: as §1

MRSA [6] = experiment: Zone of inhibition on MRSA-seeded agar culture plates; format: cell-based, methicillin-resistant S. aureus; details: 40 μL of ionic liquid applied to MRSA-seeded agar culture plates
From the text: As used herein, CyMIMCI, refers to 1-alkyl-3-methyl-imidazolium chloride ionic liquids, wherein the alkyl group is a straight chain alkyl group having y carbon atoms.

Escherichia Coli = experiment: Kill kinetics, planktonic cell cultures; format: cell-based
From the text: (§2) The kill kinetic data is provided in terms of the measured colony forming units per millilitre (CFU/mL) values, and is also provided graphically in FIGS. 9-11.

[7] = test system: Methicillin Resistant Staphylococcus Aureus (MRSA); experiment: Kill kinetics, planktonic cell cultures; format: cell-based
From the text: as §2

[8] = test system: Staphylococcus Epidermidis; experiment: Kill kinetics, planktonic cell cultures; format: cell-based
From the text: as §2

Compound `CCCCCCCCCCn1cc[n+](C)c1.[Cl-]` [C10MIMCl, 1-decyl-3-methylimidazolium chloride] has an MBC (P. mirabilis NCTC 12442 [1]) of 1290 µM, an MIC (P. mirabilis NCTC 12442 [1]) of 1290 µM and an MBC (MRSA [2]) of 643 µM. It also gave an MIC (MRSA [2]) of 160 µM, an MBEC (B. cenocepacia J2315) of 19318 µM and an MBEC (C. tropicalis NCTC 7393) of 19318 µM. The MBEC (E-MRSA 15) was 1207 µM, the MBEC (E. coli PIII) was 9659 µM and the “percent weight to volume of ionic liquid that corresponds to the MBEC value” (“percent weight to volume” for short) (E. coli PIII) was “(0.25) % w/v”. For the same compound, the MBEC (K. aerogenes NCTC 7427) was 19318 µM, the MBEC (P. aeruginosa PA01) was 2415 µM and the “percent weight to volume” value (P. aeruginosa PA01) was “(0.063) % w/v”. For the same compound, the MBEC (P. mirabilis NCTC 12442 [3]) was 9659 µM, the MBEC (S. aureus ATCC 29213) was 2415 µM and the MBEC [4] was 4829 µM. For the same compound, the “percent weight to volume” value [4] was “(0.125) % w/v”, the MBEC (MRSA [5]) was 4829 µM and the “percent weight to volume” value (MRSA [5]) was “(0.125) % w/v”. For the same compound, the “Zone Of Inhibition Radius” value (MRSA [6]) was 17 mm, the “colony forming units per millilitre” value (Escherichia Coli; 2000 μM, 0 Minutes) was 6.25 × 10^7 CFU/mL and the “colony forming units per millilitre” value (Escherichia Coli; 2000 μM, 5 Minutes) was 3.33 × 10^2 CFU/mL. The “colony forming units per millilitre” value (Escherichia Coli; 2000 μM, 10 Minutes) was 0.00 CFU/mL, the “colony forming units per millilitre” value (Escherichia Coli; 2000 μM, 20 Minutes) was 0.00 CFU/mL and the “colony forming units per millilitre” value (Escherichia Coli; 2000 μM, 30 Minutes) was 0.00 CFU/mL. The “colony forming units per millilitre” value (Escherichia Coli; 2000 μM, 45 Minutes) was 0.00 CFU/mL, the “colony forming units per millilitre” value ([7]; 1379 μM, 0 Minutes) was 1.10 × 10^8 CFU/mL and the “colony forming units per millilitre” value ([7]; 1379 μM, 5 Minutes) was 3.67 × 10^7 CFU/mL. For the same compound, the “colony forming units per millilitre” value ([7]; 1379 μM, 10 Minutes) was 5.00 × 10^6 CFU/mL, the “colony forming units per millilitre” value ([7]; 1379 μM, 20 Minutes) was 5.75 × 10^4 CFU/mL and the “colony forming units per millilitre” value ([7]; 1379 μM, 30 Minutes) was 6.67 × 10^2 CFU/mL. The “colony forming units per millilitre” value ([7]; 1379 μM, 45 Minutes) was 8.33 × 10^1 CFU/mL, the “colony forming units per millilitre” value ([8]; 644 μM, 0 Minutes) was 8.96 × 10^7 CFU/mL and the “colony forming units per millilitre” value ([8]; 644 μM, 5 Minutes) was 8.58 × 10^5 CFU/mL. The “colony forming units per millilitre” value ([8]; 644 μM, 10 Minutes) was 6.92 × 10^4 CFU/mL, the “colony forming units per millilitre” value ([8]; 644 μM, 20 Minutes) was 1.06 × 10^4 CFU/mL and the “colony forming units per millilitre” value ([8]; 644 μM, 30 Minutes) was 2.42 × 10^3 CFU/mL. For the same compound, the “colony forming units per millilitre” value ([8]; 644 μM, 45 Minutes) was 9.17 × 10^2 CFU/mL.
With `CCCCCCCCCCCCn1cc[n+](C)c1.[Cl-]` [C12MIMCl, 1-dodecyl-3-methylimidazolium chloride] the MBC (P. mirabilis NCTC 12442 [1]) was 1160 µM, the MIC (P. mirabilis NCTC 12442 [1]) was 580 µM and the MBC (MRSA [2]) was 290 µM. For the same compound, the MIC (MRSA [2]) was 36 µM, the MBEC (B. cenocepacia J2315) was 2179 µM and the MBEC (C. tropicalis NCTC 7393) was 8714 µM. The MBEC (E-MRSA 15) was 272 µM, the MBEC (E. coli PIII) was 1089 µM and the “percent weight to volume” value (E. coli PIII) was “(0.031) % w/v”. For the same compound, the MBEC (K. aerogenes NCTC 7427) was 2179 µM, the MBEC (P. aeruginosa PA01) was 1089 µM and the “percent weight to volume” value (P. aeruginosa PA01) was “(0.031) % w/v”. It also gave an MBEC (P. mirabilis NCTC 12442 [3]) of 4357 µM, an MBEC (S. aureus ATCC 29213) of 272 µM and an MBEC [4] of 272 µM. For the same compound, the “percent weight to volume” value [4] was “(0.008) % w/v”, the MBEC (MRSA [5]) was 545 µM and the “percent weight to volume” value (MRSA [5]) was “(0.016) % w/v”. The “Zone Of Inhibition Radius” value (MRSA [6]) was 17 mm, the “colony forming units per millilitre” value (Escherichia Coli; 871 μM, 0 Minutes) was 1.13 × 10^8 CFU/mL and the “colony forming units per millilitre” value (Escherichia Coli; 871 μM, 5 Minutes) was 0.00 CFU/mL. For the same compound, the “colony forming units per millilitre” value (Escherichia Coli; 871 μM, 10 Minutes) was 0.00 CFU/mL, the “colony forming units per millilitre” value (Escherichia Coli; 871 μM, 20 Minutes) was 0.00 CFU/mL and the “colony forming units per millilitre” value (Escherichia Coli; 871 μM, 30 Minutes) was 0.00 CFU/mL. For the same compound, the “colony forming units per millilitre” value (Escherichia Coli; 871 μM, 45 Minutes) was 0.00 CFU/mL, the “colony forming units per millilitre” value ([7]; 290 μM, 0 Minutes) was 2.08 × 10^8 CFU/mL and the “colony forming units per millilitre” value ([7]; 290 μM, 5 Minutes) was 2.75 × 10^5 CFU/mL. For the same compound, the “colony forming units per millilitre” value ([7]; 290 μM, 10 Minutes) was 0.00 CFU/mL, the “colony forming units per millilitre” value ([7]; 290 μM, 20 Minutes) was 0.00 CFU/mL and the “colony forming units per millilitre” value ([7]; 290 μM, 30 Minutes) was 0.00 CFU/mL. For the same compound, the “colony forming units per millilitre” value ([7]; 290 μM, 45 Minutes) was 0.00 CFU/mL, the “colony forming units per millilitre” value ([8]; 145 μM, 0 Minutes) was 6.25 × 10^7 CFU/mL and the “colony forming units per millilitre” value ([8]; 145 μM, 5 Minutes) was 1.67 × 10^2 CFU/mL. For the same compound, the “colony forming units per millilitre” value ([8]; 145 μM, 10 Minutes) was 0.00 CFU/mL, the “colony forming units per millilitre” value ([8]; 145 μM, 20 Minutes) was 0.00 CFU/mL and the “colony forming units per millilitre” value ([8]; 145 μM, 30 Minutes) was 0.00 CFU/mL. The “colony forming units per millilitre” value ([8]; 145 μM, 45 Minutes) was 0.00 CFU/mL.
